Source: ChEMBL document CHEMBL3046216, “Synthesis, biological evaluation and QSAR study of a series of substituted quinazolines as antimicrobial agents” (2013)
Values after ≈ are worked out from the molar mass of the structure shown. Active and inactive are the calls of the source. The calls are words filed in the database; no cut-off is given here.

How the values were obtained:
Type in all cases: functional
[1] = test system: Bacillus subtilis; assay: Antimicrobial activity against Bacillus subtilis ATCC 6633 assessed as growth inhibition after 24 hr by NCCLS broth dilution method
[2] = test system: Staphylococcus aureus; assay: Antimicrobial activity against Staphylococcus aureus ATCC 25923 assessed as growth inhibition after 24 hr by NCCLS broth dilution method
[3] = test system: Escherichia coli; assay: Antimicrobial activity against Escherichia coli ATCC 25922 assessed as growth inhibition after 24 hr by NCCLS broth dilution method
[4] = test system: Pseudomonas aeruginosa; assay: Antimicrobial activity against Pseudomonas aeruginosa ATCC 27853 assessed as growth inhibition after 24 hr by NCCLS broth dilution method

Structure (SMILES) | MIC [1] | MIC ([1]; ATCC 6633, 24 h) | MIC [2] | MIC ([2]; ATCC 25923, 24 h) | MIC [3] | MIC ([3]; ATCC 25922, 24 h) | MIC [4] | MIC ([4]; ATCC 27853, 24 h)
Cc1ccc(NC(=O)Nc2ccc3ncnc(Sc4nnc(-c5cccnc5)o4)c3c2)cc1 | inactive | 75 µg/mL (≈ 165 µM) | inactive | 12.5 µg/mL (≈ 27.4 µM) | inactive | 50 µg/mL (≈ 110 µM) | inactive | 12.5 µg/mL (≈ 27.4 µM)
CC1(C)S[C@@H]2[C@H](NC(=O)Cc3ccccc3)C(=O)N2[C@H]1C(=O)O [PENICILLIN G] | inactive | 1.56 µg/mL (≈ 4.67 µM) | inactive | 1.56 µg/mL (≈ 4.67 µM) | inactive | 6.25 µg/mL (≈ 18.7 µM) | inactive | 12.5 µg/mL (≈ 37.4 µM)
Cc1ccccc1NC(=S)Nc1cc2c(Sc3nnc(-c4cccnc4)o3)ncnc2cc1N1CCN(C)CC1 | inactive | 75 µg/mL (≈ 132 µM) | inactive | 50 µg/mL (≈ 87.8 µM) | inactive | 100 µg/mL (≈ 176 µM) | inactive | 25 µg/mL (≈ 43.9 µM)
CN1CCN(c2cc3ncnc(Sc4nnc(-c5cccnc5)o4)c3cc2NC(=O)Nc2ccc(-c3ccccc3)cc2)CC1 | inactive | 100 µg/mL (≈ 162 µM) | inactive | 25 µg/mL (≈ 40.6 µM) | inactive | 50 µg/mL (≈ 81.2 µM) | inactive | 25 µg/mL (≈ 40.6 µM)
CN1CCN(c2cc3ncnc(Sc4nnc(-c5cccnc5)o4)c3cc2NC(=S)Nc2cccc(Cl)c2)CC1 | inactive | 25 µg/mL (≈ 42.4 µM) | inactive | 6.25 µg/mL (≈ 10.6 µM) | inactive | 12.5 µg/mL (≈ 21.2 µM) | inactive | 50 µg/mL (≈ 84.7 µM)
O=C(NCCc1ccccc1)Nc1ccc2ncnc(Sc3nnc(-c4cccnc4)o3)c2c1 | inactive | 50 µg/mL (≈ 106 µM) | inactive | 12.5 µg/mL (≈ 26.6 µM) | inactive | 50 µg/mL (≈ 106 µM) | inactive | 75 µg/mL (≈ 160 µM)

The remaining lines, values ahead:

MIC [1] | MIC ([1]; ATCC 6633, 24 h) | MIC [2] | MIC ([2]; ATCC 25923, 24 h) | MIC [3] | MIC ([3]; ATCC 25922, 24 h) | MIC [4] | MIC ([4]; ATCC 27853, 24 h) | Structure (SMILES)
inactive | 50 µg/mL (≈ 87.8 µM) | inactive | 12.5 µg/mL (≈ 21.9 µM) | inactive | 50 µg/mL (≈ 87.8 µM) | inactive | 50 µg/mL (≈ 87.8 µM) | Cc1ccc(NC(=S)Nc2cc3c(Sc4nnc(-c5cccnc5)o4)ncnc3cc2N2CCN(C)CC2)cc1
inactive | 100 µg/mL (≈ 181 µM) | inactive | 12.5 µg/mL (≈ 22.6 µM) | inactive | 50 µg/mL (≈ 90.3 µM) | inactive | 100 µg/mL (≈ 181 µM) | Cc1ccccc1NC(=O)Nc1cc2c(Sc3nnc(-c4cccnc4)o3)ncnc2cc1N1CCN(C)CC1
inactive | 6.25 µg/mL (≈ 10.9 µM) | inactive | 25 µg/mL (≈ 43.5 µM) | inactive | 12.5 µg/mL (≈ 21.8 µM) | inactive | 50 µg/mL (≈ 87.1 µM) | CN1CCN(c2cc3ncnc(Sc4nnc(-c5cccnc5)o4)c3cc2NC(=O)Nc2ccc(Cl)cc2)CC1
inactive | 12.5 µg/mL (≈ 23.2 µM) | inactive | 25 µg/mL (≈ 46.3 µM) | inactive | 25 µg/mL (≈ 46.3 µM) | inactive | 50 µg/mL (≈ 92.7 µM) | CN1CCN(c2cc3ncnc(Sc4nnc(-c5cccnc5)o4)c3cc2NC(=O)Nc2ccccc2)CC1
